Experiments:
SLAMF1 = target: T1, SLAMF1 (Homo sapiens, UniProt Q13291); test: Co-precipitation of SLAMF1 with peptide; type: binding; details: data not shown
T1 sequence (Q13291 21-335): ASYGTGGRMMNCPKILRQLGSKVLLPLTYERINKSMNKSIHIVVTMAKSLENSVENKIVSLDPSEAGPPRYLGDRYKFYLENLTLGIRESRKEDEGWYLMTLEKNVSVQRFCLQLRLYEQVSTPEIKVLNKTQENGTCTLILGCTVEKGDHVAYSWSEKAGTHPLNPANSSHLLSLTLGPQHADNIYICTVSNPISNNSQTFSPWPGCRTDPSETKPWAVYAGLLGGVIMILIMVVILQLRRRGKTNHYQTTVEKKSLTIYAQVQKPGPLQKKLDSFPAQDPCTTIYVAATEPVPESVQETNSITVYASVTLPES
Source text: The striking effect of the P7 peptide on bacterial uptake could explain the blockade of TLR4-mediated IFNβ secretion by this peptide, because activation of IFNβ expression can only be initiated from the endosomal compartment. This effect could also be mediated by peptide interaction with Rab11 FIP2 (data not shown), which is a crucial regulator of TRAM trafficking and the uptake of both Gram-negative and Gram-positive bacteria by macrophages (Skjesol, supra). […] P7 is derived from a C-terminal β-sheet, and so could complex with the SLAMF1 N-terminal beta sheet. Given the effect of P7-Pen on bacterial uptake, it could be used to block bacterial uptake by monocytes, thus making bacteria more exposed to antibiotic treatment.

TLR2 = test: Primary human macrophages stimulated with FSL-1: cytokine mRNA, Western blot, IRAK precipitations; type: cell-based
Experimental: (§1) Primary human macrophages (PBMC derived, differentiated in media with 10% human serum and M-CSF 20 ng/ml, 7 days) were stimulated with K12 LPS (100 ng/ml), FSL-1 (100 ng/ml) or CL075 (3 μg/ml). […] (B) qPCR for mRNA expression of IFNβ, IL-6, TNF and IL-1β, average for three biological replicates, error bars ±SD.
(§2) Primary human macrophages (7 days) were pre-treated with Pen or P7-Pen (15 μM) for 30 min before addition of LPS (100 ng/ml), FSL-1 (100 ng/ml) or CL075 (3 μg/ml). A: Protein expression in lysates for input control. B,C: Precipitations were performed using sheep anti-IRAK4 (B) or anti-IRAK1 (C) polyclonal antibodies covalently bound to magnetic beads.
(§3) The effect of P7-Pen on TLR2-mediated pro-inflammatory cytokine expression was investigated.

TLR4 [1] = test: Western blot of LPS signalling in murine immortalized BMDMs; type: cell-based, mouse; details: murine macrophages, 10 μM, LPS
Experimental: Western blot analysis of lysates from cells pretreated with media containing controls (water, DMSO or 10 μM control peptide C3-Pen) or P7-Pen peptide for 30 min before stimulation with LPS (K12 LPS, 100 ng/ml) for designated time periods.
Protein pellets were dissolved by heating protein pellets for 10 min at 95° C. in buffer containing 4 M urea, 1 SDS (Sigma) and NuPAGE® LDS Sample Buffer (4×) (Thermo Fisher Scientific). Otherwise, lysates were made using 1× RIPA lysis buffer (150 mM NaCl, 50 mM TrisHCl (pH 7.5), 1% Triton X100, 5 mM EDTA, protease inhibitors, phosphatase inhibitors). For Western blot analysis we used pre-cast protein gels NuPAGE™ Novex™ and iBlot Transfer Stacks iBlot Gel Transfer Device (Thermo Fisher Scientific). Proteins were transferred to the membrane by dry-blotting using iBlot® 2 NC Regular/Mini Stacks (Life Technologies) in the iBlot 2 Dry Blotting System (Life Technologies). After secondary antibody incubation, membranes were washed and incubated with HRP substrate solution (SuperSignal™ West Femto Maximum Sensitivity Substrate (Thermo Fisher Scientific)). Images were taken using Odyssey® Fc (LI-CORE). Quantification graphs were generated by the analysis of signal intensities for protein bands (protein of interest and endogenous loading control—β-tubulin from the same membrane) using Odyssey software (LI-CORE). Data were normalised to the expression levels of β-tubulin and presented as a relative fold change to the control sample.
In addition, pre-treatment of murine macrophages with P7-Pen inhibited LPS-mediated phosphorylation of TBK1 and IκBα, and decreased phosphorylation of p38 MAPK (FIG. 23).

TLR8 = test: Primary human macrophages stimulated with CL075: cytokine mRNA, Western blot, IRAK precipitations; type: cell-based; details: CL075-treated primary human macrophages
Experimental: as §1, §2

SLAMF1-TRAM interaction = target: T2, SLAMF1-TRAM interaction (Homo sapiens, UniProt Q86XR7); test: Co-precipitation of SLAMF1 and TRAM^Flag in the presence of ECFP-tagged peptides; type: binding; details: N-terminal ECFP-tagged peptides, HEK-293T lysates, anti-Flag IP
T2 construct: expressed in transfected cells; host or cells: HEK-293T
T2 sequence (Q86XR7 whole entry): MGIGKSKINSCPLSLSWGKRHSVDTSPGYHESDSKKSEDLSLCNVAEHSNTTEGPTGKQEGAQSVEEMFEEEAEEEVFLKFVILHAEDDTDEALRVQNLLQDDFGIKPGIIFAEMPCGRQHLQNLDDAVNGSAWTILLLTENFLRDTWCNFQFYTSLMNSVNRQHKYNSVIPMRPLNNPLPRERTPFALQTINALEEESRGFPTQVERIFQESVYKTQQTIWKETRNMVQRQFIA
Source text: (A) Western blot analysis of SLAMF1 and TRAM^Flag co-precipitated in the presence of CFP-tagged peptides. TRAM^Flag was precipitated from cell lysates on agarose beads and distributed across 15 tubes. […] Unbound proteins/peptides were removed by a washing step, and pecipitates analysed by WB (anti-Flag IPs). Reduced SLAMF1 binding to TRAM indicates inhibition of the TRAM/SLAMF1 interaction by the peptide. (B) Sequences of the peptides that were expressed as ECFP-tagged proteins (N-terminal ECFP). Peptides 4 and 5 are not shown and were not pursued.
HEK293T cells expressing Flag-tagged proteins were lysed using 1×lysis buffer (150 mM NaCl, 50 mM TrisHCl (pH 8.0), 1 mM EDTA, 1% NP40), supplemented with EDTA-free Complete Mini protease Inhibitor Cocktail Tablets and PhosSTOP phosphatase inhibitor cocktail from Roche, 50 mM NaF and 2 mM […] (Sigma). IPs were carried out by rotation of cell lysates at 4° C. for 2 h with anti-flag (M2) agarose (Sigma). Beads were washed 5 times with lysis buffer and heated for 5 min with 1×NuPAGE® LDS Sample Buffer (Thermo Fisher Scientific) before analysis of precipitates by Western blotting. […]
Inhibition of the TRAM-SLAMF1 interaction using SLAMF1-derived peptides was tested. For the first line of experiments, SLAMF1-derived peptides were co-expressed as N-terminal ECFP-tagged proteins together with SLAMF1 and TRAM^FLAG constructs in HEK-293T cells.

TLR4 [2] = test: Primary human macrophages stimulated with LPS: cytokine mRNA and p38 MAPK phosphorylation; type: cell-based; details: LPS-treated primary human macrophages
Experimental: as §1, §3

For “P7: SEQ ID NO: 1; amino acids 324-333 of SLAMF1 with a proline to threonine substitution at position 10 (ITVYASVTLT; P7) [Peptide P7]”, which “co-precipitation of SLAMF1” value (SLAMF1) is on record?
Its value is “could also co-precipitate”.

What about the “phosphorylation of p38 MAPK and IL-6, TNF and IL-1β expression” value (shortened to “phosphorylation … TNF and IL-1β expression”) (TLR2; FSL-1-treated primary human macrophages) of the same substance?
The value was “not”.

What about the “phosphorylation of p38 MAPK, posttranslational modifications of IRAK1, recruitment of IRAK1 and 4 to MyD88” value (TLR2; TLR2-stimulated cells, 15 μM, FSL-1 100 ng/ml) of the same substance?
Its value is “does not inhibit”.

What about the “phosphorylation of TAK1 kinase and IRAK1 ubiquitination/phosphorylation” value (TLR4 [1]) of the same substance?
Its value is “interfered”.

And the “phosphorylation … TNF and IL-1β expression” value (TLR8)?
Its value is “not”.

What about the “inhibitory effect on SLAMF1-TRAM co-precipitation” value (SLAMF1-TRAM interaction) of the same substance?
Its value is “highest efficacy”.

And the “phosphorylation … TNF and IL-1β expression” value (TLR4 [2])?
Its value is “fully inhibited”.

Source: US20230220047A1, “PEPTIDES FOR TREATMENT OF SEPSIS AND CANCER” (NORWEGIAN UNIVERSITY OF SCIENCE AND TECHNOLOGY (NTNU), priority 2020, published 2023)
